This is an account of results in patent US20260159604A1, “USES OF NON-SMALL CELL LUNG CANCER TARGET ARID1A AND INHIBITOR THEREOF IN PREPARATION OF DRUG FOR TREATING LUNG CANCER” (THE FIRST AFFILIATED HOSPITAL OF BENGBU MEDICAL COLLEGE, priority 2021, published 2026).

Test [1] relates to KP and KPAfl/fl tumor-derived organoids. Description: Drug sensitivity of BET inhibitors on tumor-derived organoids. The conditions noted are these: for number of organoids with increasing drug concentration: different drug concentrations. The test is classed as cell-based, mouse. The protocol:
Firstly, lung tumor cells of KP and KPAfl/fl mice were taken for in vitro organoid culture and expansion, and drug sensitivity experiments of five widely used BET inhibitors were conducted on tumor-derived organoids (as shown in FIG. 7 panel A).

In test [2] the test system is ARID1A-deficient lung cancers. Description: Intervention in glycolysis in AAV9-CMV-Cre induced KP and KPAfl/fl mouse lung cancer models. The test is classed as in vivo. The conditions noted are these: KPAfl/fl mice, AAV9-CMV-Cre induction. The text has this: In Example 4 of the present invention, the biological mechanism of ARID1A deletion promoting lung cancer progression by increasing glycolysis levels was described. In this example, one or more strategies were used to intervene in glycolysis levels, and whether the method(s) could inhibit the progression of ARID1A-deficient lung cancers was observed. In one embodiment, the present invention used a clinical drug 2-DG to inhibit glucose metabolism levels, including glycolysis levels of tumor cells. In another embodiment, the present invention used lentivirus-mediated CRISPR/Cas9 to interfere with the expression of Pgam1 gene (pSECC-sgPgaml group), wherein the nucleotide sequences of the sgRNA were as shown in SEQ ID NO: 4 and SEQ ID NO: 5. In another embodiment, the present invention used lentivirus-mediated CRISPR/Cas9 to interfere with the expression of Pkm gene (pSECC-sgPkm group), wherein the nucleotide sequences of the […] were as shown in SEQ ID NO: 6 and SEQ ID NO: 7.
Firstly, 4-week-old KP and KPAfl/fl mouse systems were established. Secondly, AAV9-CMV-Cre virus induction was performed on mice. At the same time, lentivirus-mediated Cas9 and sgRNA were administered respectively to target a key gene Pgam1 or Pkm in glycolysis for intervention, with 2-DG drug treatment as another experimental group. […]

Test [3] relates to tumors with ARID1A knockout. The experiment in a line: KP and KPAfl/fl tumor organoids xenotransplanted subcutaneously into C57 mice. The conditions noted are these: subcutaneous organoid xenotransplant in C57 mice, volumes measured every 3 days. The test is classed as in vivo, mouse. The procedure:
During the experiment, tumor volumes were measured every 3 days.

The subject of test [4] is ARID1A-deficient lung cancer cells. The experiment in a line: Sensitivity to BETi small molecules in transgenic model mice (KP and KPAfl/fl groups). The class given is in vivo, mouse. The procedure:
Finally, the sensitivity of BETi small molecules to ARID1A-deficient cells was tested on transgenic model mice (KP and KPAfl/fl groups) (FIG. 7 panel D).

Test [5] concerns ARID1A-mutant ovarian cancers. To be noted: reported studies; cited from earlier work.

Take `Cc1sc2c(c1C)C(c1ccc(Cl)cc1)=N[C@@H](CC(=O)Nc1ccc(O)cc1)c1nnc(C)n1-2` [OTX015, Birabresib]: the “number of organoids with increasing drug concentration” value in test [1] (7th day) is reported as “the number of organoids decreased with the increase of drug concentration”.

Consider `O=CC[C@@H](O)[C@H](O)[C@H](O)CO` [2-DG, 2-deoxy-D-glucose], for which the “inhibition of tumor progression caused by the ARID1A deletion” value in test [2] is listed as “could to some extent inhibit tumor progression”.

For `COc1cc2c(cc1-c1c(C)noc1C)ncc1[nH]c(=O)n([C@H](C)c3ccccn3)c12` [Bet151], in test [1] (7th day), the “number of organoids with increasing drug concentration” value is “the number of organoids decreased with the increase of drug concentration”.

As to `CC(=O)N1c2ccc(-c3ccc(C(=O)O)cc3)cc2[C@H](Nc2ccc(Cl)cc2)C[C@@H]1C` [Bet726], the “number of organoids with increasing drug concentration” value in test [1] (7th day) was “the number of organoids decreased with the increase of drug concentration”.

For the molecule `Cc1sc2c(c1C)C(c1ccc(Cl)cc1)=N[C@@H](CC(=O)OC(C)(C)C)c1nnc(C)n1-2` [JQ1], in test [1], the “survival ability of ARID1A-deficient versus ARID1A wild-type tumor organoids” value is “greater damage to the survival ability of ARID1A-deficient tumor organoids than ARID1A wild-type organoids”. In addition, the “number of organoids with increasing drug concentration” value in test [1] (7th day) was “the number of organoids decreased with the increase of drug concentration”. Besides, the “formation of tumor-derived organoids, KPAfl/fl versus KP” value in test [1] (concentrations of 10 μm and 50 μm, 7th day) is listed as “selectively impaired the formation of KPAfl/fl tumor-derived organoids”. Moreover, the “sensitivity of ARID1A-deficient lung adenocarcinoma cells to BETi compounds” value in test [1] (summary statement, compared with other BETi) was “more sensitive”. Further, the “sensitivity by comparing tumor volumes and weights” value in test [3] is “more sensitive”. Moreover, the “slowing of progression of ARID1A-deficient lung cancers (FIG. 7 legend)” value in test [4] (FIG. 7 summary) is listed as “more prominent inhibitory effect”. The “sensitivity by comparing the number and area of tumors” value in test [4] (transgenic KP and KPAfl/fl mice) was “sensitive”. Further, in test [5], the “inhibitory effects on ARID1A-mutant ovarian cancers” value is reported as “inhibitory effects on ARID1A-mutant ovarian cancers”.
